EP4703358A1, “BENZO SIX-MEMBERED HETEROCYCLIC GSPT1 PROTEIN DEGRADATION AGENT AND USE THEREOF” (China Pharmaceutical University, priority 2023, dated 2024)

Experiments:
KG-1 cells = assay: Antiproliferative activity against KG-1 cells (CCK8); assay type: cell-based; details: Homo sapiens, 72 hours
Experimental: KG-1 cells in the logarithmic growth phase were diluted in a culture medium (RPMI + 10% FBS) and plated onto 96-well plates at 5000 cells/well, and the plates were incubated in an incubator at 37 °C with 5% CO2 for 24 hours. 10 mM stock solutions of the test compounds of the present disclosure in DMSO were prepared and diluted with the culture medium to set 9 concentration gradients. Three replicate wells were set for each concentration. After compound addition, the plates were incubated in an incubator at 37 °C with 5% CO2 for 72 hours. The cell proliferation was assessed using the CCK8 method. The cell growth inhibition IC50 values of the compounds were determined using an enzyme labeling method. The IC50 values were calculated using GraphPad Prism 7 software.
The antiproliferative activity of the compounds against KG-1 cells is shown in Table 2, where A represents IC50 < 1 nM, B represents 1 ≤ IC50 < 10 nM, C represents 10 nM ≤ IC50 < 100 nM, D represents 100 nM ≤ IC50 < 1000 nM, and E represents IC50 ≥ 1000 nM. Table 2. The antiproliferative activity of compounds against KG-1 cells

GSPT1 protein = target: T1, GSPT1 protein (Homo sapiens, UniProt P15170+Q96SW2); assay: Degradation of GSPT1 in KG-1 cells (Western blot); assay type: cell-based; design: percent GSPT1 degradation: dose or concentration left out as unconfirmed; details: for percent GSPT1 degradation at 0.2 µM: KG-1 cells, compound concentration 200 nM, 4 hours; for percent GSPT1 degradation: KG-1, 4 h, read-out: GSPT1 degradation
T1 construct: host or cells: KG-1 cells
T1 sequence (P15170 whole entry): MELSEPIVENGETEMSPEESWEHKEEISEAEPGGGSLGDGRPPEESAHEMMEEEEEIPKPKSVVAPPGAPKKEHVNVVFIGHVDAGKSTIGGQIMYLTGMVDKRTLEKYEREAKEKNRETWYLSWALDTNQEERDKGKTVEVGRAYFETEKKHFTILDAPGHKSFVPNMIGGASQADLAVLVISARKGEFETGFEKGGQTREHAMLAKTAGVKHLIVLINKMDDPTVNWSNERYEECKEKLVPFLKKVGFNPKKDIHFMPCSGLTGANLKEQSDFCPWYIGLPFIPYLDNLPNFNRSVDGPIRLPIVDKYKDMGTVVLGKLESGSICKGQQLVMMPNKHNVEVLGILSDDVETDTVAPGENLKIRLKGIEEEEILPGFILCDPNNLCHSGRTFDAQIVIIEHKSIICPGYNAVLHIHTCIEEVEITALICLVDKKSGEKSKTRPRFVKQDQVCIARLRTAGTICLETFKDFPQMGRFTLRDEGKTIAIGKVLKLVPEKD
T1 sequence (Q96SW2 whole entry): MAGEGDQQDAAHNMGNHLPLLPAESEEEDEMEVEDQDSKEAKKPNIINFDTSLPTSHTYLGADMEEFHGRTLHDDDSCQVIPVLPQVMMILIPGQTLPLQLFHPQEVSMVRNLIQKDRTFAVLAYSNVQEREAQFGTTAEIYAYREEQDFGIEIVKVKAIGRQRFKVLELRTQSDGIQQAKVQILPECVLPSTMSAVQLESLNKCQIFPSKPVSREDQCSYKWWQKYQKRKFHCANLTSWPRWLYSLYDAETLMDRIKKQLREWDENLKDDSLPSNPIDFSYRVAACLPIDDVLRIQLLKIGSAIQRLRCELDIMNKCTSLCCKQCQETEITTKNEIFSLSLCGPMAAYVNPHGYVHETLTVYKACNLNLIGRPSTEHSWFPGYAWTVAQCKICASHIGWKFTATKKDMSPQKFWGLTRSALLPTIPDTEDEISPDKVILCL
T1 sequence (Q16531 whole entry partner): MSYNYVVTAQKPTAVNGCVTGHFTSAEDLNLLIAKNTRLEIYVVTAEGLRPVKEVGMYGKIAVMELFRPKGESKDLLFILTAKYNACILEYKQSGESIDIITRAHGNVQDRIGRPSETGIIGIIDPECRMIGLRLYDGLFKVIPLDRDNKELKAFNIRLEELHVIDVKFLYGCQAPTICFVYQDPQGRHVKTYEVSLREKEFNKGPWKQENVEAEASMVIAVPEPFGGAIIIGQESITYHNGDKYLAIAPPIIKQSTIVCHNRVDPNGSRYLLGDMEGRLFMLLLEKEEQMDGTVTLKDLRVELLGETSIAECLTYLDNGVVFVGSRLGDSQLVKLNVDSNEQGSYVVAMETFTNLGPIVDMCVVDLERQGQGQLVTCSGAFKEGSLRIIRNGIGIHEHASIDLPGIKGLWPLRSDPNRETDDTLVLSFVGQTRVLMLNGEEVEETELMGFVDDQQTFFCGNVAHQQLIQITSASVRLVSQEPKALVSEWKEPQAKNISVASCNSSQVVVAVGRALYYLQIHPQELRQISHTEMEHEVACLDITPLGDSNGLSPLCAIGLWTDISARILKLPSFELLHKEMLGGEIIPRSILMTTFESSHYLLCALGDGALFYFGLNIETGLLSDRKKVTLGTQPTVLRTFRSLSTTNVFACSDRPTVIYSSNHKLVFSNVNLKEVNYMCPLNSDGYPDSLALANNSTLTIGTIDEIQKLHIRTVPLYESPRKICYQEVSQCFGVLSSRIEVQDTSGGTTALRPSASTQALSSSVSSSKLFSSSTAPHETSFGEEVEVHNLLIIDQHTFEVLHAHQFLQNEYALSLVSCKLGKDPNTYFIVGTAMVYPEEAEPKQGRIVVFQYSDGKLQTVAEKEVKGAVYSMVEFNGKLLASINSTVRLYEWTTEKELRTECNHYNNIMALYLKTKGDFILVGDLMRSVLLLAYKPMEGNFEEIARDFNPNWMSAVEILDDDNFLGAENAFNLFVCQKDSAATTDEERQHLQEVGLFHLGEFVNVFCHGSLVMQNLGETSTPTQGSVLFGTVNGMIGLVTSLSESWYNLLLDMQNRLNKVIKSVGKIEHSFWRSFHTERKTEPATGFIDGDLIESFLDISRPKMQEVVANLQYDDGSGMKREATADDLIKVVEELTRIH
Experimental: KG-1 cells (ATCC) were grown in an IMDM culture medium (containing 20% FBS). After centrifugation and counting, the cell concentration was adjusted. The cells were plated onto 6-well plates at 10^6 cells/well, with 1350 µL per well. 150 µL of DMSO and the test compounds of the present disclosure (compound concentration: 200 nM) were added. The plates were incubated in an incubator at 37 °C with 5% CO2 for 4 hours. The cells were centrifuged, and the culture medium was discarded. PBS was added to wash the cells and then discarded. Whole cell lysates were prepared using a protease inhibitor cocktail (100×, Fude Biological), a protein phosphatase inhibitor cocktail (100×, Fude Biological), SuperNuclease (Beyotime), and a high-intensity RIPA lysis buffer (Thermo Fisher) and placed on ice for 30 minutes. After centrifugation, the cell debris precipitates were discarded, and the whole cell lysate supernatants were collected and transferred to new centrifuge tubes. After a BCA protein assay, samples were prepared using a 5× loading buffer (Thermo Fisher). The samples were subjected to protein electrophoresis separation in a 4-20% precast gel (SDS-PAGE gel), transferred to a PVDF membrane, then blocked with 5% NFDM/TBST at room temperature for 1 hour, incubated overnight with primary antibodies at 4 °C, and incubated with a secondary antibody at room temperature for 2 hours the next day. Signals were detected using a MINICHEMITM imaging system.
Primary antibodies: • Anti-GSPT1: Abcam ab234433 • Anti-beta actin: Fude Biological FD0060
Secondary antibody: Anti-rabbit peroxidase-linked secondary antibody: Fude Biological FDG007
The degradation effects of the compounds on GSPT1 protein are shown in Table 1, where A represents a GSPT1 protein degradation percentage of no less than 80%, B represents a degradation percentage of less than 80% but no less than 50%, C represents a degradation percentage of less than 50% but no less than 25%, and D represents a degradation percentage of less than 25%. Table 1. The degradation of GSPT1 protein by compounds

SMILES | percent GSPT1 degradation at 0.2 µM (GSPT1 protein) [%] | IC50 (KG-1 cells) [nM] | percent GSPT1 degradation (GSPT1 protein) [%]
O=C1CCC(N2Cc3cc(CNC(=O)C4=Cc5cc(NC(=O)C6CC6)ccc5OC4)ccc3C2=O)C(=O)N1 (centres unmarked) [Compound A-26, N-((2-(2,6-Dioxopiperidin-3-yl)-1-oxoisoindolin-5-yl)methyl)-6-(cyclopropanecarboxamido)-2H-chromene-3-carboxamide] | < 25 | 100 to 1000 | –
O=C1CCC(N2Cc3cc(CNC(=O)C4COc5ccc(F)cc5C4)ccc3C2=O)C(=O)N1 (centres unmarked) [Compound B-2, N-((2-(2,6-Dioxopiperidin-3-yl)-1-oxoisoindolin-5-yl)methyl)-6-fluorochromane-3-carboxamide] | > 80 | 1 to 10 | –
O=C1CCC(N2Cc3cc(CNC(=O)C4=Cc5cc(NC(=O)CO)ccc5OC4)ccc3C2=O)C(=O)N1 (centres unmarked) [Compound A-25, N-((2-(2,6-Dioxopiperidin-3-yl)-1-oxoisoindolin-5-yl)methyl)-6-(2-hydroxyacetamido)-2H-chromene-3-carboxamide] | 25 to 50 | ≥ 1000 | –
O=C1CCC(N2Cc3cc(CNC(=O)C4COc5ccc(Cl)cc5C4)ccc3C2=O)C(=O)N1 (centres unmarked) [Compound B-3, N-((2-(2,6-Dioxopiperidin-3-yl)-1-oxoisoindolin-5-yl)methyl)-6-chlorochromane-3-carboxamide] | > 80 | 1 to 10 | –
C=CC(=O)Nc1ccc2c(c1)C=C(C(=O)NCc1ccc3c(c1)CN(C1CCC(=O)NC1=O)C3=O)CO2 (centres unmarked) [Compound A-24, N-((2-(2,6-Dioxopiperidin-3-yl)-1-oxoisoindolin-5-yl)methyl)-6-(acrylamido)-2H-chromene-3-carboxamide] | 25 to 50 | ≥ 1000 | –
Cc1cc2c(cc1C)OCC(C(=O)NCc1ccc3c(c1)CN(C1CCC(=O)NC1=O)C3=O)=C2 (centres unmarked) [Compound A-37, N-((2-(2,6-Dioxopiperidin-3-yl)-1-oxoisoindolin-5-yl)methyl)-6,7-dimethyl-2H-chromene-3-carboxamide] | > 80 | 10 to 100 | –
Cc1cc2c(cc1Cl)OCC(C(=O)NCc1ccc3c(c1)CN(C1CCC(=O)NC1=O)C3=O)=C2 (centres unmarked) [Compound A-29, N-((2-(2,6-Dioxopiperidin-3-yl)-1-oxoisoindolin-5-yl)methyl)-7-chloro-6-methyl-2H-chromene-3-carboxamide] | > 80 | 10 to 100 | –
O=C1CCC(N2Cc3cc(CNC(=O)C4=Cc5cc(F)c(F)cc5OC4)ccc3C2=O)C(=O)N1 (centres unmarked) [Compound A-35, N-((2-(2,6-Dioxopiperidin-3-yl)-1-oxoisoindolin-5-yl)methyl)-6,7-difluoro-2H-chromene-3-carboxamide] | – | 10 to 100 | > 80
O=C1CCC(N2Cc3cc(CNC(=O)C4=Cc5cc(Cl)ccc5OC4)ccc3C2=O)C(=O)N1 (centres unmarked) [Compound A-6, N-((2-(2,6-Dioxopiperidin-3-yl)-1-oxoisoindolin-5-yl)methyl)-6-chloro-2H-chromene-3-carboxamide] | – | 10 to 100 | > 80

Further lines, with some results ahead:

percent GSPT1 degradation at 0.2 µM (GSPT1 protein) [%] | SMILES | IC50 (KG-1 cells) [nM] | percent GSPT1 degradation (GSPT1 protein) [%]
> 80 | O=C1CCC(N2Cc3c(ccc(CNC(=O)C4=Cc5cccc(OC(F)(F)F)c5OC4)c3F)C2=O)C(=O)N1 (centres unmarked) [Compound A-43, N-((2-(2,6-Dioxopiperidin-3-yl)-4-fluoro-1-oxoisoindolin-5-yl)methyl)-8-(trifluoromethoxy)-2H-chromene-3-carboxamide] | 1 to 10 | –
> 80 | O=C1CCC(N2Cc3cc(CNC(=O)C4=Cc5c(F)ccc(F)c5OC4)ccc3C2=O)C(=O)N1 (centres unmarked) [Compound A-36, N-((2-(2,6-Dioxopiperidin-3-yl)-1-oxoisoindolin-5-yl)methyl)-5,8-difluoro-2H-chromene-3-carboxamide] | 1 to 10 | –
50 to 80 | O=C1CCC(N2Cc3c(CNC(=O)C4=Cc5cc(OC(F)(F)F)ccc5OC4)cccc3C2=O)C(=O)N1 (centres unmarked) [Compound A-41, N-((2-(2,6-Dioxopiperidin-3-yl)-1-oxoisoindolin-4-yl)methyl)-6-(trifluoromethoxy)-2H-chromene-3-carboxamide] | 10 to 100 | –
> 80 | O=C1CCC(N2Cc3cc(CNC(=O)C4=Cc5ccc(F)c(F)c5OC4)ccc3C2=O)C(=O)N1 (centres unmarked) [Compound A-32, N-((2-(2,6-Dioxopiperidin-3-yl)-1-oxoisoindolin-5-yl)methyl)-7,8-difluoro-2H-chromene-3-carboxamide] | 1 to 10 | –
> 80 | O=C1CCC(N2Cc3cc(CNC(=O)C4=Cc5cccc(F)c5OC4)ccc3C2=O)C(=O)N1 (centres unmarked) [Compound A-5, N-((2-(2,6-Dioxopiperidin-3-yl)-1-oxoisoindolin-5-yl)methyl)-8-fluoro-2H-chromene-3-carboxamide] | 1 to 10 | –
50 to 80 | O=C1CCC(N2Cc3cccc(CNC(=O)C4=Cc5cc(OC(F)(F)F)ccc5OC4)c3C2=O)C(=O)N1 (centres unmarked) [Compound A-39, N-((2-(2,6-Dioxopiperidin-3-yl)-3-oxoisoindolin-4-yl)methyl)-6-(trifluoromethoxy)-2H-chromene-3-carboxamide] | 10 to 100 | –
> 80 | Cc1cc2c(cc1F)OCC(C(=O)NCc1ccc3c(c1)CN(C1CCC(=O)NC1=O)C3=O)=C2 (centres unmarked) [Compound A-30, N-((2-(2,6-Dioxopiperidin-3-yl)-1-oxoisoindolin-5-yl)methyl)-7-fluoro-6-methyl-2H-chromene-3-carboxamide] | 10 to 100 | –
> 80 | O=C1CCC(N2Cc3cc(CNC(=O)C4=Cc5cccc(C(F)(F)F)c5OC4)ccc3C2=O)C(=O)N1 (centres unmarked) [Compound A-18, N-((2-(2,6-Dioxopiperidin-3-yl)-1-oxoisoindolin-5-yl)methyl)-8-trifluoromethyl-2H-chromene-3-carboxamide] | < 1 | –
50 to 80 | CN(C)c1ccc2c(c1)C=C(C(=O)NCc1ccc3c(c1)CN(C1CCC(=O)NC1=O)C3=O)CO2 (centres unmarked) [Compound A-13, N-((2-(2,6-Dioxopiperidin-3-yl)-1-oxoisoindolin-5-yl)methyl)-6-(dimethylamino)-2H-chromene-3-carboxamide] | 10 to 100 | –
> 80 | N#Cc1ccc2c(c1)C=C(C(=O)NCc1ccc3c(c1)CN(C1CCC(=O)NC1=O)C3=O)CO2 (centres unmarked) [Compound A-11, N-((2-(2,6-Dioxopiperidin-3-yl)-1-oxoisoindolin-5-yl)methyl)-6-cyano-2H-chromene-3-carboxamide] | 10 to 100 | –
> 80 | O=C1CCC(N2Cc3cc(CNC(=O)C4=Cc5cc(F)cc(F)c5OC4)ccc3C2=O)C(=O)N1 (centres unmarked) [Compound A-33, N-((2-(2,6-Dioxopiperidin-3-yl)-1-oxoisoindolin-5-yl)methyl)-6,8-difluoro-2H-chromene-3-carboxamide] | 1 to 10 | –
50 to 80 | C=Cc1ccc2c(c1)C=C(C(=O)NCc1ccc3c(c1)CN(C1CCC(=O)NC1=O)C3=O)CO2 (centres unmarked) [Compound A-14, N-((2-(2,6-Dioxopiperidin-3-yl)-1-oxoisoindolin-5-yl)methyl)-6-vinyl-2H-chromene-3-carboxamide] | 10 to 100 | –
> 80 | Cc1cccc2c1C=C(C(=O)NCc1ccc3c(c1)CN(C1CCC(=O)NC1=O)C3=O)CO2 (centres unmarked) [Compound A-22, N-((2-(2,6-Dioxopiperidin-3-yl)-1-oxoisoindolin-5-yl)methyl)-5-methyl-2H-chromene-3-carboxamide] | 1 to 10 | –
